Source: US20230382889A1 (Volastra Therapeutics, Inc., priority 2022, published 2023)
Read-outs that look alike come from different tables or passages of the source.

Key:
[1] = system: NIH:OVCAR-3 cells; test: Cell viability of KIF18a-sensitive cell lines, NIH:OVCAR-3 (Cell Titre-Glo, 7 days); format: cell-based; conditions: NIH:OVCAR3, 7 days, read-out: NIH:OVCAR3 IC50
Description: (§1) Cell lines were seeded as follows 24 hours before compound treatment: HCC15 (Korean Cell Line Bank) 600 cell/well, 95 μL of RPMI-1640 media supplemented with 100 units/mL penicillin, 100 units/mL streptomycin and 10% FBS; NIH:OVCAR-3 (ATCC), 1000 cell/well, 95 μL of RPMI-1640 media supplemented with 100 units/mL penicillin, 100 units/mL streptomycin, 0.01 mg/mL bovine insulin, and 20% FBS; JIMT-1 (Addexbio) 1000 cell/well, 95 μL of DMEM media supplemented with 100 units/mL penicillin, 100 units/mL streptomycin, and 10% FBS.
(§2) Test compounds were added to cells in a 20× dilution scheme by adding 5 μL of serially diluted compound to the plate, and the treated cells were incubated for an additional 7 days in a 37° C., 5% CO2 incubator. DMSO was used as the negative control (0% effect), and wells omitting cells were used as the positive control (100% effect). The cells were incubated for seven days, and cell viability determined via the Promega Cell Titre-Glo® Assay kit. Luminescence units were converted to ATP concentrations via an ATP standard curve (10 point, 2-fold dilution from 5 uM). % Inhibition was calculated for each well as: ([max−min]−[test−min])/[max−min]. IC50 values were calculated from concentration vs. % Inhibition data via a four-parameter variable slope model.

[2] = system: HCC15 cells; test: Cell viability of KIF18a-sensitive cell lines, HCC15 (Cell Titre-Glo, 7 days); format: cell-based; conditions: HCC15, 7 days, read-out: HCC15 IC50
Description: as §1, §2

[3] = target: KIF18a-microtubule complex (Homo sapiens (Human), UniProt Q8NI77); test: Binding kinetics to KIF18a-microtubule complex (global progress curve analysis); conditions: for kon (on-rate from binding kinetics assay) / koff: KIF18A 0.25 nM, up to 24 hr; for koff: read-out: koff (off-rate from binding kinetics assay) (converted); for Ki: koff/kon, read-out: KI (determined from binding kinetic assay koff/kon)
Description: Compound binding kinetics parameters (kon and koff) were determined by the method of global progress curve analysis (GPCA). […] ADP product levels were determined by the Promega® ADP-Glo assay.

[4] = target: hKIF18A (1-374) (Homo sapiens (Human), UniProt Q8NI77); test: Inhibition of KIF18A microtubule-dependent ATPase activity (ADP-Glo); format: biochemical; conditions: 4 nM hKIF18A (1-374)
Procedure, shortened: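 Reaction was started with pre-formed microtubules and ATP (0.2 mg/mL and 2.0 mM in the added mix) and run 60 min at 28 °C. ADP was read by ADP-Glo luminescence, and IC50 came from a four-parameter fit of % inhibition.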

[5] = system: JIMT-1 cells; test: Cell viability of KIF18a-sensitive cell lines, JIMT-1 (Cell Titre-Glo, 7 days); format: cell-based; conditions: JIMT-1, 7 days, read-out: JIMT-1 IC50
Description: as §1, §2

KIF18a-microtubule complex, sequence (Q8NI77 1-374, one chain of several): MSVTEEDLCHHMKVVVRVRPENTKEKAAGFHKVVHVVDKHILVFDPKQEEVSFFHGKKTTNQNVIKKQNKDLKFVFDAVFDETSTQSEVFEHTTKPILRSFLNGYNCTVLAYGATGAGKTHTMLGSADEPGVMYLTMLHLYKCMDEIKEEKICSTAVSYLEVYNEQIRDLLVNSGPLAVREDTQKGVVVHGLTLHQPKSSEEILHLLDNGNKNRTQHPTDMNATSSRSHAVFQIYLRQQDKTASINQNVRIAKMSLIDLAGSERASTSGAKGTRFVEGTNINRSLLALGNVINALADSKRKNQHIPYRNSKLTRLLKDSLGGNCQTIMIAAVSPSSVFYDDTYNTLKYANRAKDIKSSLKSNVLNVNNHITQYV
hKIF18A (1-374), sequence (Q8NI77 1-374): as the sequence (Q8NI77 1-374, one chain of several) above

| SMILES | IC50 ([1]; Homo sapiens, OVCAR-3, 168 h) [nM] | IC50 ([2]; 168 h) [nM] | kon (on-rate from binding kinetics assay) [3] [M⁻¹ s⁻¹] | koff [3] [s⁻¹] | Ki [3] [nM] | disc. t1/2 (dissociation half-life ln(2)/koff) [3] [h] | IC50 [4] [nM] | IC50 [1] [nM] | IC50 [2] [nM] | IC50 ([5]; Homo sapiens, 168 h) [nM] | IC50 [5] [nM] |
| --- | --- | --- | --- | --- | --- | --- | --- | --- | --- | --- | --- |
| CS(=O)(=O)Nc1ccc(-c2ncc(-c3cccc(N4CCC(F)(F)CC4)n3)[nH]2)c(N2CCC3(CC2)CC3)c1 [Compound 9, N-(4-(5-(6-(4,4-difluoropiperidin-1-yl)pyridin-2-yl)-1H-imidazol-2-yl)-3-(6-azaspiro[2.5]octan-6-yl)phenyl)methanesulfonamide] | 200 | 110 | 6670 | 5.83e-05 | 8.7 | 3.3 | 21 | – | – | 100 | – |
| Cc1cc(-n2cc(-c3ccc(NS(=O)(=O)CCO)cc3N3CCC4(CC3)CC4)nn2)nc(N2CC3C(C2)C3(F)F)n1 (stereo not drawn) [Compound 97, N-(4-(1-(2-(6,6-difluoro-3-azabicyclo[3.1.0]hexan-3-yl)-6-methylpyrimidin-4-yl)-1H-1,2,3-triazol-4-yl)-3-(6-azaspiro[2.5]octan-6-yl)phenyl)-2-hydroxyethane-1-sulfonamide] | 72 | 37 | – | – | – | – | 36 | – | – | 110 | – |
| Cc1cc(-c2cn(-c3ccc(NS(=O)(=O)CCO)cc3N3CCC4(CC3)CC4)nn2)nc(N2CCCCC2)n1 [Compound 101, 2-hydroxy-N-(4-(4-(6-methyl-2-(piperidin-1-yl)pyrimidin-4-yl)-1H-1,2,3-triazol-1-yl)-3-(6-azaspiro[2.5]octan-6-yl)phenyl)ethane-1-sulfonamide] | 27 | 16 | – | – | – | – | 17 | – | – | 27 | – |
| CS(=O)(=O)Nc1ccc(-n2cc(-c3cccc(N4CCC(F)(F)CC4)n3)nn2)c(N2CCC3(CC2)CC3)c1 [Compound 11, N-(4-(4-(6-(4,4-difluoropiperidin-1-yl)pyridin-2-yl)-1H-1,2,3-triazol-1-yl)-3-(6-azaspiro[2.5]octan-6-yl)phenyl)methanesulfonamide] | 23 | 13 | 36100 | 4.44e-06 | 0.13 | 43 | 23 | – | – | 9.1 | – |
| Cc1cc(-c2cn(-c3ccc(NS(=O)(=O)CCO)cc3N3CCCCC3)nn2)nc(N2CCC(F)(F)CC2)n1 [Compound 67, N-(4-(4-(2-(4,4-difluoropiperidin-1-yl)-6-methylpyrimidin-4-yl)-1H-1,2,3-triazol-1-yl)-3-(piperidin-1-yl)phenyl)-2-hydroxyethane-1-sulfonamide] | 47 | 51 | 12200 | 2.06e-05 | 1.7 | 9.4 | 22 | – | – | 66 | – |
| CS(=O)(=O)Nc1ccc(-c2cn(-c3cccc(N4CCC(F)(F)CC4)n3)nn2)c(N2CCC3(CC2)CC3)c1 [Compound 29, N-(4-(1-(6-(4,4-difluoropiperidin-1-yl)pyridin-2-yl)-1H-1,2,3-triazol-4-yl)-3-(6-azaspiro[2.5]octan-6-yl)phenyl)methanesulfonamide] | 21 | 25 | – | – | – | – | 18 | – | – | 23 | – |
| Cc1cc(-c2cn(-c3ccc(NS(=O)(=O)CCO)cc3N3CCCCC3)nn2)nc(N2CCC(F)(F)CC2)c1 [Compound 68, N-(4-(4-(6-(4,4-difluoropiperidin-1-yl)-4-methylpyridin-2-yl)-1H-1,2,3-triazol-1-yl)-3-(piperidin-1-yl)phenyl)-2-hydroxyethane-1-sulfonamide] | 21 | 28 | 21900 | 1.81e-05 | 0.82 | 11 | 12 | – | – | 30 | – |
| O=S(=O)(CCO)Nc1ccc(-n2cc(-c3ccc(F)c(N4CCC(F)(F)CC4)n3)nn2)c(N2CCC3(CC2)CC3)c1 [Compound 79, N-(4-(4-(6-(4,4-difluoropiperidin-1-yl)-5-fluoropyridin-2-yl)-1H-1,2,3-triazol-1-yl)-3-(6-azaspiro[2.5]octan-6-yl)phenyl)-2-hydroxyethane-1-sulfonamide] | 8.3 | 5.4 | – | – | – | – | 15 | – | – | 7.8 | – |
| O=S(=O)(CCO)Nc1ccc(-n2cc(-c3cccc(OC4CCCC4)n3)nn2)c(N2CCC3(CC2)CC3)c1 [Compound 100, N-(4-(4-(6-(cyclopentyloxy)pyridin-2-yl)-1H-1,2,3-triazol-1-yl)-3-(6-azaspiro[2.5]octan-6-yl)phenyl)-2-hydroxyethane-1-sulfonamide] | 80 | 45 | – | – | – | – | 11 | – | – | 60 | – |

Compounds with a lower IC50 [4], results first:

| IC50 ([1]; Homo sapiens, OVCAR-3, 168 h) [nM] | IC50 ([2]; 168 h) [nM] | kon (on-rate from binding kinetics assay) [3] [M⁻¹ s⁻¹] | koff [3] [s⁻¹] | Ki [3] [nM] | disc. t1/2 (dissociation half-life ln(2)/koff) [3] [h] | IC50 [4] [nM] | IC50 [1] [nM] | IC50 [2] [nM] | SMILES | IC50 ([5]; Homo sapiens, 168 h) [nM] | IC50 [5] [nM] |
| --- | --- | --- | --- | --- | --- | --- | --- | --- | --- | --- | --- |
| 5.5 | 3.9 | 30600 | 6.67e-06 | 0.21 | 28 | 6.6 | – | – | O=S(=O)(CCO)Nc1ccc(-n2cc(-c3cccc(N4CCC(F)(F)CC4)n3)nn2)c(N2CCC3(CC2)CC3)c1 [Compound 45, N-(4-(4-(6-(4,4-difluoropiperidin-1-yl)pyridin-2-yl)-1H-1,2,3-triazol-1-yl)-3-(6-azaspiro[2.5]octan-6-yl)phenyl)-2-hydroxyethane-1-sulfonamide] | 6.9 | – |
| 32 | 29 | 36100 | 1.94e-05 | 0.53 | 9.9 | 6 | – | – | O=S(=O)(CCO)Nc1ccc(-n2cc(-c3csc(N4CCC(F)(F)CC4)n3)nn2)c(N2CCC3(CC2)CC3)c1 [Compound 69, N-(4-(4-(2-(4,4-difluoropiperidin-1-yl)thiazol-4-yl)-1H-1,2,3-triazol-1-yl)-3-(6-azaspiro[2.5]octan-6-yl)phenyl)-2-hydroxyethane-1-sulfonamide] | 38 | – |
| 16 | 15 | – | – | – | – | 8 | – | – | CCS(=O)(=O)Nc1ccc(-n2cc(-c3cccc(N4CC(F)(F)C4)n3)nn2)c(N2CCC3(CC2)CC3)c1 [Compound 61, N-(4-(4-(6-(3,3-difluoroazetidin-1-yl)pyridin-2-yl)-1H-1,2,3-triazol-1-yl)-3-(6-azaspiro[2.5]octan-6-yl)phenyl)ethanesulfonamide] | 15 | – |
| 19 | 12 | – | – | – | – | 5 | – | – | O=S(=O)(CCO)Nc1ccc(-n2cc(-c3ccn(C4CCC(F)(F)CC4)n3)nn2)c(N2CCC3(CCC3)CC2)c1 [Compound 130, N-(4-(4-(1-(4,4-difluorocyclohexyl)-1H-pyrazol-3-yl)-1H-1,2,3-triazol-1-yl)-3-(7-azaspiro[3.5]nonan-7-yl)phenyl)-2-hydroxyethane-1-sulfonamide] | 29 | – |
| – | – | – | – | – | – | 5.6 | 21 | 13 | O=S(=O)(CCO)Nc1ccc(-n2cc(-c3cccc(C(O)C4CCCC4)n3)nn2)c(N2CCC3(CC2)CC3)c1 (single isomer, unassigned) [Compound 90b] | – | 20 |
| 18 | 12 | 21900 | 1.14e-05 | 0.52 | 17 | 6.6 | – | – | CS(=O)(=O)Nc1ccc(-n2cc(-c3cccc(N4CCC(F)(F)CC4)n3)nn2)c(N2CCCCC2)c1 [Compound 15, N-(4-(4-(6-(4,4-difluoropiperidin-1-yl)pyridin-2-yl)-1H-1,2,3-triazol-1-yl)-3-(piperidin-1-yl)phenyl)methanesulfonamide] | 12 | – |
| 210 | 120 | 4720 | 6.67e-05 | 14 | 2.9 | 9.2 | – | – | CS(=O)(=O)Nc1ccc(-c2ncc(-c3cccc(N4CCOCC4)n3)[nH]2)c(N2CCC3(CC2)CC3)c1 [Compound 10, N-(4-(5-(6-morpholinopyridin-2-yl)-1H-imidazol-2-yl)-3-(6-azaspiro[2.5]octan-6-yl)phenyl)methanesulfonamide] | 130 | – |
